Laboratory results as given in patent US12780800B1, “Triazole-pyridinyl substituted azacyclohexyl acetic acid compounds as LPA receptor antagonists” (Viva Star Biosciences Limited, priority 2021, dated 2022).

Target: T1, LPA1 (Homo sapiens, UniProt Q92633)
T1 construct: ProLink (PK) beta-galactosidase enzyme-fragment tag; host or cells: CHO-K1
Experiment: LPA1 calcium flux assay (LPA1 functional antagonist assay)
Format: cell-based
Settings: PathHunter CHO-K1 EDG2 β-Arrestin cell line; calcium indicator dye; stimulated with EC80 concentration of LPA; FLIPR Tetra
Method in brief: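 The LPA1 antagonist readout was intracellular calcium flux, and IC50 values were calculated from it. Plates stood 30 min at RT after compound addition. Cells, grown overnight, had first taken up calcium dye over 45 min at 37 °C.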

T1 sequence (Q92633 whole entry, the tested form may be a part): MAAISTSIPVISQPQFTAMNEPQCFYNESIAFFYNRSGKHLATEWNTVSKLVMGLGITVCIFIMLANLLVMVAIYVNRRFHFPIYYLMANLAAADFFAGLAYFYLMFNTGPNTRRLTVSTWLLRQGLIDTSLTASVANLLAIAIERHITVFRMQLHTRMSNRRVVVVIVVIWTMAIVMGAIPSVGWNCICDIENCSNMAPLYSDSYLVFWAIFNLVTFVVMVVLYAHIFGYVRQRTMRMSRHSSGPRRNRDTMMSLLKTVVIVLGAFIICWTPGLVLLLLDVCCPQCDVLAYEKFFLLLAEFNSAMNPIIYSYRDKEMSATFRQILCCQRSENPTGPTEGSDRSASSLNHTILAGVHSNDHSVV

| Compound | IC50 |
| --- | --- |
| Cc1nc(-c2nnn(C)c2COc2nccc(C3CCC3)n2)ccc1CN1CC(C(=O)O)CC(F)(F)C1 (single isomer, unassigned) [Example 147, (S) or (R)-1-((6-(5-(((4-cyclobutylpyrimidin-2-yl)oxy)methyl)-1-methyl-1H-1,2,3-triazol-4-yl)-2-methylpyridin-3-yl)methyl)-5,5-difluoropiperidine-3-carboxylic acid] | < 100 nM |
| Cc1nc(-c2nnn(C)c2Cn2ccc(CC3CC3)c(C)c2=O)ccc1N1CC(CC(=O)O)CC(F)(F)C1 (stereo in doubt) [Example 3, (S)-2-(1-(6-(5-((4-(cyclopropylmethyl)-3-methyl-2-oxopyridin-1(2H)-yl)methyl)-1-methyl-1H-1,2,3-triazol-4-yl)-2-methylpyridin-3-yl)-5,5-difluoropiperidin-3-yl)acetic acid] | 500 to 5000 nM |
| Cc1nc(-c2nnn(C)c2COc2cc(-n3cccn3)ccn2)ccc1N1CCC[C@H](CC(=O)O)C1 [Example 103, (R)-2-(1-(6-(5-(((4-(1H-pyrazol-1-yl)pyridin-2-yl)oxy)methyl)-1-methyl-1H-1,2,3-triazol-4-yl)-2-methylpyridin-3-yl)piperidin-3-yl)acetic acid] | < 100 nM |
| CCc1nc(-c2cnn(C)c2Cn2ncc(CC3CC3)n2)ncc1N1C[C@@H](CC(=O)O)CC(F)(F)C1 [Example 136, (S)-2-(1-(2-(5-((4-(cyclopropylmethyl)-2H-1,2,3-triazol-2-yl)methyl)-1-methyl-1H-pyrazol-4-yl)-4-ethylpyrimidin-5-yl)-5,5-difluoropiperidin-3-yl)acetic acid] | 100 to 500 nM |
| CCc1nc(-c2cnn(C)c2Cn2cc(CC3CC3)nn2)ncc1N1C[C@@H](CC(=O)O)CC(F)(F)C1 [Example 135, (S)-2-(1-(2-(5-((4-(cyclopropylmethyl)-1H-1,2,3-triazol-1-yl)methyl)-1-methyl-1H-pyrazol-4-yl)-4-ethylpyrimidin-5-yl)-5,5-difluoropiperidin-3-yl)acetic acid] | > 5000 nM |
| CCCc1cnn(Cc2c(-c3ccc(CN4CC(C(=O)O)CC(F)(F)C4)c(C)n3)nnn2C)c(=O)c1 (single isomer, unassigned) [Example 158, (S) or (R)-5,5-difluoro-1-((2-methyl-6-(1-methyl-5-((6-oxo-4-propylpyridazin-1(6H)-yl)methyl)-1H-1,2,3-triazol-4-yl)pyridin-3-yl)methyl)piperidine-3-carboxylic acid] | > 5000 nM |
| Cc1nc(-c2nnn(C)c2COc2cc(-n3nccn3)ccn2)ccc1N1CCC[C@H](CC(=O)O)C1 [Example 104, (R)-2-(1-(6-(5-(((4-(2H-1,2,3-triazol-2-yl)pyridin-2-yl)oxy)methyl)-1-methyl-1H-1,2,3-triazol-4-yl)-2-methylpyridin-3-yl)piperidin-3-yl)acetic acid] | < 100 nM |
| CCCc1cnn(Cc2c(-c3ccc(CN4CC(C(=O)O)CC(F)(F)C4)c(C)n3)nnn2C)c(=O)c1 (single isomer, unassigned) [Example 159, (R) or (S)-5,5-difluoro-1-((2-methyl-6-(1-methyl-5-((6-oxo-4-propylpyridazin-1(6H)-yl)methyl)-1H-1,2,3-triazol-4-yl)pyridin-3-yl)methyl)piperidine-3-carboxylic acid] | > 5000 nM |
| CCc1nc(-c2nnn(C)c2COc2cn(CC(C)C)nn2)ccc1N1C[C@@H](CC(=O)O)CC(F)(F)C1 [Example 128, (S)-2-(1-(2-ethyl-6-(5-(((1-isobutyl-1H-1,2,3-triazol-4-yl)oxy)methyl)-1-methyl-1H-1,2,3-triazol-4-yl)pyridin-3-yl)-5,5-difluoropiperidin-3-yl)acetic acid] | 100 to 500 nM |
| CCCc1ccc(=O)n(Cc2c(-c3ccc(N4C[C@@H](F)C[C@H](CC(=O)O)C4)c(CC)n3)nnn2C)c1 (single isomer, unassigned) [Example 45, 2-((3S,5S) or (3R,5R)-1-(2-ethyl-6-(1-methyl-5-((2-oxo-5-propylpyridin-1(2H)-yl)methyl)-1H-1,2,3-triazol-4-yl)pyridin-3-yl)-5-fluoropiperidin-3-yl)acetic acid] | 100 to 500 nM |
| Cc1nc(-c2nnn(C)c2COc2cc(-n3cccn3)ncn2)ccc1N1C[C@@H](CC(=O)O)CC(F)(F)C1 [Example 78, (S)-2-(1-(6-(5-(((6-(1H-pyrazol-1-yl)pyrimidin-4-yl)oxy)methyl)-1-methyl-1H-1,2,3-triazol-4-yl)-2-methylpyridin-3-yl)-5,5-difluoropiperidin-3-yl)acetic acid] | < 100 nM |
| CCc1nc(-c2nnn(C)c2COc2nnn(CC(C)C)n2)ccc1N1C[C@@H](CC(=O)O)CC(F)(F)C1 [Example 124, (S)-2-(1-(2-ethyl-6-(5-(((2-isobutyl-2H-tetrazol-5-yl)oxy)methyl)-1-methyl-1H-1,2,3-triazol-4-yl)pyridin-3-yl)-5,5-difluoropiperidin-3-yl)acetic acid] | < 100 nM |
| CCCc1ccc(=O)n(Cc2c(-c3ccc(N4C[C@H](CC(=O)O)CC(F)(F)C4)c(CC)n3)nnn2C)c1 [Example 7, (R)-2-(1-(2-ethyl-6-(1-methyl-5-((2-oxo-5-propylpyridin-1(2H)-yl)methyl)-1H-1,2,3-triazol-4-yl)pyridin-3-yl)-5,5-difluoropiperidin-3-yl)acetic acid] | 500 to 5000 nM |
| CCc1nc(-c2nnn(C)c2COc2cc(-n3nccn3)ncn2)ccc1N1CCC[C@H](CC(=O)O)C1 [Example 98, (R)-2-(1-(6-(5-(((6-(2H-1,2,3-triazol-2-yl)pyrimidin-4-yl)oxy)methyl)-1-methyl-1H-1,2,3-triazol-4-yl)-2-ethylpyridin-3-yl)piperidin-3-yl)acetic acid] | 100 to 500 nM |
| CCCc1ccc(=O)n(Cc2c(-c3ccc(CN4CC(C(=O)O)CC(F)(F)C4)c(CC)n3)nnn2C)c1 (single isomer, unassigned) [Example 150, (R) or (S)-1-((2-ethyl-6-(1-methyl-5-((2-oxo-5-propylpyridin-1(2H)-yl)methyl)-1H-1,2,3-triazol-4-yl)pyridin-3-yl)methyl)-5,5-difluoropiperidine-3-carboxylic acid] | 100 to 500 nM |
| CCCn1ncnc1OCc1c(-c2ccc(N3C[C@@H](CC(=O)O)CC(F)(F)C3)c(CC)n2)nnn1C [Example 121, (S)-2-(1-(2-ethyl-6-(1-methyl-5-(((1-propyl-1H-1,2,4-triazol-5-yl)oxy)methyl)-1H-1,2,3-triazol-4-yl)pyridin-3-yl)-5,5-difluoropiperidin-3-yl)acetic acid] | 500 to 5000 nM |
| Cc1nc(-c2nnn(C)c2Cn2cc(CC3CC3)nn2)ccc1N1C[C@@H](CC(=O)O)CC(F)(F)C1 [Example 133, (S)-2-(1-(6-(5-((4-(cyclopropylmethyl)-1H-1,2,3-triazol-1-yl)methyl)-1-methyl-1H-1,2,3-triazol-4-yl)-2-methylpyridin-3-yl)-5,5-difluoropiperidin-3-yl)acetic acid] | 100 to 500 nM |

More lines, now with the values ahead:

| IC50 | Compound |
| --- | --- |
| > 5000 nM | CCc1nc(-c2nnn(C)c2CN2C[C@H](CC3CC3)NC2=O)ccc1N1C[C@@H](CC(=O)O)CC(F)(F)C1 [Example 65, 2-((S)-1-(6-(5-(((S)-4-(cyclopropylmethyl)-2-oxoimidazolidin-1-yl)methyl)-1-methyl-1H-1,2,3-triazol-4-yl)-2-ethylpyridin-3-yl)-5,5-difluoropiperidin-3-yl)acetic acid] |
| 500 to 5000 nM | CCCn1cc(OCc2c(-c3ccc(N4C[C@@H](CC(=O)O)CC(F)(F)C4)c(CC)n3)nnn2C)c(=O)cn1 [Example 109, (S)-2-(1-(2-ethyl-6-(1-methyl-5-(((5-oxo-2-propyl-2,5-dihydropyridazin-4-yl)oxy)methyl)-1H-1,2,3-triazol-4-yl)pyridin-3-yl)-5,5-difluoropiperidin-3-yl)acetic acid] |
| 100 to 500 nM | CCc1nc(-c2nnn(C)c2COc2ncnn2CC(C)C)ccc1N1C[C@@H](CC(=O)O)CC(F)(F)C1 [Example 123, (S)-2-(1-(2-ethyl-6-(5-(((1-isobutyl-1H-1,2,4-triazol-5-yl)oxy)methyl)-1-methyl-1H-1,2,3-triazol-4-yl)pyridin-3-yl)-5,5-difluoropiperidin-3-yl)acetic acid] |
| < 100 nM | CCc1nc(-c2nnn(C)c2COc2ncnc(C3CCC3)n2)ccc1N1CCC[C@H](CC(=O)O)C1 [Example 95, (R)-2-(1-(6-(5-(((4-cyclobutyl-1,3,5-triazin-2-yl)oxy)methyl)-1-methyl-1H-1,2,3-triazol-4-yl)-2-ethylpyridin-3-yl)piperidin-3-yl)acetic acid] |
| 100 to 500 nM | CCc1nc(-c2nnn(C)c2COc2cnn(CC3CC3)n2)ccc1N1C[C@@H](CC(=O)O)CC(F)(F)C1 [Example 127] |
| < 100 nM | CCc1nc(-c2nnn(C)c2COc2nccc(C3CCC3)n2)ccc1CN1CC(C(=O)O)CC(F)(F)C1 (single isomer, unassigned) [Example 152, (S) or (R)-1-((6-(5-(((4-cyclobutylpyrimidin-2-yl)oxy)methyl)-1-methyl-1H-1,2,3-triazol-4-yl)-2-ethylpyridin-3-yl)methyl)-5,5-difluoropiperidine-3-carboxylic acid] |
| > 5000 nM | CCCc1cn(C)c(=O)c(OCc2c(-c3ccc(N4C[C@@H](CC(=O)O)CC(F)(F)C4)c(CC)n3)nnn2C)n1 [Example 110, (S)-2-(1-(2-ethyl-6-(1-methyl-5-(((4-methyl-3-oxo-6-propyl-3,4-dihydropyrazin-2-yl)oxy)methyl)-1H-1,2,3-triazol-4-yl)pyridin-3-yl)-5,5-difluoropiperidin-3-yl)acetic acid] |
| > 5000 nM | Cc1nc(-c2nnn(C)c2Cn2ccn(CC3CC3)c2=O)ccc1N1C[C@@H](CC(=O)O)CC(F)(F)C1 [Example 72, (S)-2-(1-(6-(5-((3-(cyclopropylmethyl)-2-oxo-2,3-dihydro-1H-imidazol-1-yl)methyl)-1-methyl-1H-1,2,3-triazol-4-yl)-2-methylpyridin-3-yl)-5,5-difluoropiperidin-3-yl)acetic acid] |
